Results published in US11427548B2 (Arvinas Operations, Inc., priority 2015, dated 2022).
Where two headings read alike, the source gives them in different places.

Tests used:
[1] = target: T1, Androgen Receptor (Homo sapiens, UniProt P10275); experiment: Androgen Receptor ELISA assay (PathScan AR ELISA) in VCaP cells: AR degradation, Dmax and DC50; format: cell-based
T1 construct: endogenous in cells; host or cells: VCaP cells
T1 sequence (P10275 1-920): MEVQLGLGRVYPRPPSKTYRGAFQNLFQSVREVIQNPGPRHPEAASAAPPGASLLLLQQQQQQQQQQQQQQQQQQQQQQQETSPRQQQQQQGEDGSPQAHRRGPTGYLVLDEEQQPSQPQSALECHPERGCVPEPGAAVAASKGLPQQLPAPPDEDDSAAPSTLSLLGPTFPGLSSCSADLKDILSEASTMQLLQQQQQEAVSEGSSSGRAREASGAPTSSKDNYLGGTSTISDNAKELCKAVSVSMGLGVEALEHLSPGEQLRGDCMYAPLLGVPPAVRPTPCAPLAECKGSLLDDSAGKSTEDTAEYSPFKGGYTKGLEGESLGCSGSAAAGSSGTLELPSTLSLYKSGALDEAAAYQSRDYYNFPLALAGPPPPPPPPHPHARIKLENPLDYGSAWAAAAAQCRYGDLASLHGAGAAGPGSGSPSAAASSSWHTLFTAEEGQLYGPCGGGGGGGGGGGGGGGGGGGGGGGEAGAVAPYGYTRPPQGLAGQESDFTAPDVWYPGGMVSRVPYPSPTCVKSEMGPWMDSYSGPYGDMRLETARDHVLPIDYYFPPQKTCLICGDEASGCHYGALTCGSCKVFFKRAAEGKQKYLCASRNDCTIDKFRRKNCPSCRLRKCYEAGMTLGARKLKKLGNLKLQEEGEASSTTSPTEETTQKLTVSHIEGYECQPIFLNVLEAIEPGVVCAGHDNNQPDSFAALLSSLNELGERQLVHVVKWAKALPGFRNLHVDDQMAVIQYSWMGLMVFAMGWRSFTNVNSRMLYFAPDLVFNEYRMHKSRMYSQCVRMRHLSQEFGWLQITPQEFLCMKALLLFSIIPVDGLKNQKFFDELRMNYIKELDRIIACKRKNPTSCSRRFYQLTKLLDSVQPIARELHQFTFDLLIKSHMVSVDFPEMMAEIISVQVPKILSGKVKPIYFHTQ
In short: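 VCaP cells, 30,000/well, grown ≥3 days in phenol red-free RPMI with 5% charcoal-stripped FBS; compound added in 0.1% DMSO with 0.1 nM R1881, 7 half-log doses, 24 h. Lysate AR quantified by PathScan sandwich ELISA, HRP/TMB read at 450 nm, giving DC50 and Dmax.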

[2] = target: T2, Androgen Receptor (Homo sapiens, UniProt P10275+P40337, T878A); experiment: Androgen Receptor ELISA assay (PathScan AR ELISA) in LNCaP cells: AR degradation, Dmax and DC50; format: cell-based; conditions: for DC50: concentration that caused 50% Androgen Receptor degradation
T2 construct: Compounds have been evaluated in this assay in LNCaP and/or VCaP cells utilizing similar protocols; endogenous in cells; host or cells: LNCaP cells

[3] = read-out: VCaP DC50; concentration that caused 50% Androgen Receptor degradation, VCaP cells
[4] = highest percentage of Androgen Receptor degradation observed
[5] = concentration that caused 50% Androgen Receptor degradation, VCaP cells; read-out: VCaP DC50
[6] = highest percentage of Androgen Receptor degradation
[7] = read-out: VCaP DC50; VCaP cells; concentration that caused 50% Androgen Receptor degradation

T2 sequence (P10275 whole entry T878A): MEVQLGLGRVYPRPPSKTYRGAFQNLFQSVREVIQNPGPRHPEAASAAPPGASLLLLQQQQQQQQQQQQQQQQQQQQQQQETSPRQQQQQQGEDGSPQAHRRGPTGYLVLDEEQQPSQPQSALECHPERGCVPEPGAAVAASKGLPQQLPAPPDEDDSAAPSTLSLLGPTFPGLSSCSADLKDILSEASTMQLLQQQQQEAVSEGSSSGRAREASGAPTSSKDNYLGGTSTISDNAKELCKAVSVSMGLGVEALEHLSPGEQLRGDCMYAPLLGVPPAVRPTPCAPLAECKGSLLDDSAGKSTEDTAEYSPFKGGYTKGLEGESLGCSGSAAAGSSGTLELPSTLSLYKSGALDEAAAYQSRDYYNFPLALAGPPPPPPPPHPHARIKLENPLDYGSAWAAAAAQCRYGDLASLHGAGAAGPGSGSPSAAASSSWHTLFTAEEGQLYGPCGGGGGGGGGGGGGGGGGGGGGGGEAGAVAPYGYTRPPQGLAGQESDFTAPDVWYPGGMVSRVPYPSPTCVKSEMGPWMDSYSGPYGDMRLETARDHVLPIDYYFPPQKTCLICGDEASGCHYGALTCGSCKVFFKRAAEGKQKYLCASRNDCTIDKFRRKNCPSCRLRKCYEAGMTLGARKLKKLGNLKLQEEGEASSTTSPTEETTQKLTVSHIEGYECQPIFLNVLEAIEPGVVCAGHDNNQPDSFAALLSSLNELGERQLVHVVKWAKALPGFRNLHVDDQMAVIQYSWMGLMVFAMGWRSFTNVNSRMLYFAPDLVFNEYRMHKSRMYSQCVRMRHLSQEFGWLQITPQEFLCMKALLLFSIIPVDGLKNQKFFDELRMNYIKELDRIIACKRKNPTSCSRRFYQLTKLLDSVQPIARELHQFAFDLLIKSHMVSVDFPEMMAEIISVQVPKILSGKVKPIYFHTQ
T2 sequence (P40337 whole entry): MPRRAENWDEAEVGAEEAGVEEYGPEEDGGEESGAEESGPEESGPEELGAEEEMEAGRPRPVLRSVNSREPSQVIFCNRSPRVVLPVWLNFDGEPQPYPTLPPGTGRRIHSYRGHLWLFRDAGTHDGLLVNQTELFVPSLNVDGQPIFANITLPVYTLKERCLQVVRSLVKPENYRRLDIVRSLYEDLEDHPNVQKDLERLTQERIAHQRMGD
T2 sequence (Q15369 whole entry partner): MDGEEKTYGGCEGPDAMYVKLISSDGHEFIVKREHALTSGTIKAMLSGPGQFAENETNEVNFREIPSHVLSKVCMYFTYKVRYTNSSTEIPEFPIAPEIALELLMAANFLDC
T2 sequence (Q15370 whole entry partner): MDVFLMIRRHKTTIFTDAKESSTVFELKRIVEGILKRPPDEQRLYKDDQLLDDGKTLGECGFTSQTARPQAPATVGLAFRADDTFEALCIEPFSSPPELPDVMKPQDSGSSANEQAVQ

For `Cc1ncsc1-c1ccc(CNC(=O)[C@@H]2C[C@@H](O)CN2C(=O)[C@@H](NC(=O)COCCCCCN(C)C(=O)CCCc2ccc(N3C(=S)N(c4ccc(C#N)c(C(F)(F)F)c4)C(=O)C3(C)C)cc2)C(C)(C)C)cc1` [Example 65, (2S,4R)-1-[(2S)-2-[2-({5-[4-(4-{3-[4-cyano-3-(trifluoromethyl)phenyl]-5,5-dimethyl-4-oxo-2-sulfanylideneimidazolidin-1-yl}phenyl)-N-methylbutanamido]pentyl}oxy)acetamido]-3,3-dimethylbutanoyl]-4-hydroxy-N-{[4-(4-methyl-1,3-thiazol-5-yl)phenyl]methyl}pyrrolidine-2-carboxamide], the Dmax ([1]; VCaP, read-out: VCaP Dmax (%)) was 51 to 70%, the DC50 [1, 3] was under 50 nM and the DC50 [2] was 51 to 500 nM. For the same compound, the Dmax [2, 4] was 51 to 70%.

`Cc1ncsc1-c1ccc(CNC(=O)[C@@H]2C[C@@H](O)CN2C(=O)[C@@H](NC(=O)CCOCC#CC#CCOc2ccc(N3C(=S)N(c4ccc(C#N)c(C(F)(F)F)c4)C(=O)C3(C)C)cc2)C(C)(C)C)cc1` [Example 55, (2S,4R)-1-[(2S)-2-(3-{[6-(4-{3-[4-cyano-3-(trifluoromethyl)phenyl]-5,5-dimethyl-4-oxo-2-sulfanylideneimidazolidin-1-yl}phenoxy)hexa-2,4-diyn-1-yl]oxy}propanamido)-3,3-dimethylbutanoyl]-4-hydroxy-N-{[4-(4-methyl-1,3-thiazol-5-yl)phenyl]methyl}pyrrolidine-2-carboxamide] was tested, and the Dmax ([1]; VCaP, read-out: VCaP Dmax (%)) was 51 to 70%, the DC50 [2] was over 501 nM and the Dmax [2, 4] was 26 to 50%.

In the case of `Cc1ncsc1-c1ccc(CNC(=O)[C@@H]2C[C@@H](O)CN2C(=O)[C@@H](NC(=O)COCCCOCCCCCOc2ccc(N3C(=S)N(c4cnc(C#N)c(C(F)(F)F)c4)C(=O)C3(C)C)cc2)C(C)(C)C)cc1` [Example 2, (2S,4R)-1-((S)-2-(2-(3-(5-(4-(3-(6-cyano-5-(trifluoromethyl)pyridin-3-yl)-5,5-dimethyl-4-oxo-2-thioxoimidazolidin-1-yl)phenoxy)pentyloxy)propoxy)acetamido)-3,3-dimethylbutanoyl)-4-hydroxy-N-(4-(4-methylthiazol-5-yl)benzyl)pyrrolidine-2-carboxamide], the Dmax ([1]; VCaP, read-out: VCaP Dmax (%)) is reported as 51 to 70%, the DC50 [1, 5] is reported as under 50 nM and the Dmax [2, 4] is reported as over 71%.

`Cc1ncsc1-c1ccc(CNC(=O)[C@@H]2C[C@@H](O)CN2C(=O)[C@@H](NC(=O)OCCOCCOc2ccc(-c3ccc(N4C(=S)N(c5ccc(C#N)c(C(F)(F)F)c5)C(=O)C4(C)C)cc3)cc2)C(C)(C)C)cc1` [Example 66, 2-(2-(4′-(3-(4-cyano-3-(trifluoromethyl)phenyl)-5,5-dimethyl-4-oxo-2-thioxoimidazolidin-1-yl)biphenyl-4-yloxy)ethoxy)ethyl (S)-1-((2S,4R)-4-hydroxy-2-(4-(4-methylthiazol-5-yl)benzylcarbamoyl)pyrrolidin-1-yl)-3,3-dimethyl-1-oxobutan-2-ylcarbamate] gave a Dmax ([1]; VCaP, read-out: VCaP Dmax (%)) of 26 to 50%, a DC50 [1, 3] of 51 to 500 nM and a DC50 [2] of 51 to 500 nM. For the same compound, the Dmax [2, 4] was 51 to 70%.

With `Cc1ncsc1-c1ccc(CNC(=O)[C@@H]2C[C@@H](O)CN2C(=O)[C@@H](NC(=O)COCCCOCCCCOc2ccc(N3C(=S)N(c4ccc(C#N)c(C(F)(F)F)c4)C(=O)C3(C)C)cc2)C(C)C)cc1` [Example 29, (2S,4R)-1-[(2S)-2-(2-{3-[4-(4-{3-[4-cyano-3-(trifluoromethyl)phenyl]-5,5-dimethyl-4-oxo-2-sulfanylideneimidazolidin-1-yl}phenoxy)butoxy]propoxy}acetamido)-3-methylbutanoyl]-4-hydroxy-N-{[4-(4-methyl-1,3-thiazol-5-yl)phenyl]methyl}pyrrolidine-2-carboxamide] the Dmax ([1]; VCaP, read-out: VCaP Dmax (%)) was 51 to 70%, the DC50 [2] was 51 to 500 nM and the Dmax [2, 4] was 51 to 70%.

`Cc1ncsc1-c1ccc(CNC(=O)[C@@H]2C[C@@H](O)CN2C(=O)[C@@H](NC(=O)COCCCOCCCCOc2ccc(N3C(=S)N(c4cnc(C#N)c(C(F)(F)F)c4)C(=O)C3(C)C)cc2)C(C)(C)C)cc1` [Example 30, (2S,4R)-1-[(2S)-2-(2-{3-[4-(4-{3-[6-cyano-5-(trifluoromethyl)pyridin-3-yl]-5,5-dimethyl-4-oxo-2-sulfanylideneimidazolidin-1-yl}phenoxy)butoxy]propoxy}acetamido)-3,3-dimethylbutanoyl]-4-hydroxy-N-{[4-(4-methyl-1,3-thiazol-5-yl)phenyl]methyl}pyrrolidine-2-carboxamide] showed a Dmax ([1]; VCaP, highest percentage of Androgen Receptor degradation observed, VCaP cells; read-out: VCaP Dmax (%)) of over 71%, a DC50 [1, 5] of under 50 nM and a DC50 [2] of under 50 nM. The Dmax [2, 4] was over 71%.

`Cc1ncsc1-c1ccc(CNC(=O)[C@@H]2C[C@@H](O)CC2C(=O)[C@H](C(C)C)N2Cc3ccccc3C2=O)c(OCCOC2CCCC[C@@H]2OCCOc2ccc(N3C(=S)N(c4ccc(C#N)c(C(F)(F)F)c4)C(=O)C3(C)C)cc2)c1` (stereo partly shown) [Example 297] was tested, and the Dmax ([1]; VCaP, read-out: VCaP Dmax (%)) was 26 to 50%, the DC50 [2] was over 501 nM and the Dmax [2, 6] was 26 to 50%.

Compound `Cc1ncsc1-c1ccc(CNC(=O)[C@@H]2C[C@@H](O)CN2C(=O)[C@@H](NC(=O)COCCCOCCCOc2ccc(N3C(=S)N(c4ccc(C#N)c(C(F)(F)F)c4)C(=O)C3(C)C)cc2)C(C)(C)C)cc1` [Example 238] has a Dmax ([1]; VCaP, read-out: VCaP Dmax (%)) of under 25%, a DC50 [2] of 51 to 500 nM and a Dmax [2, 6] of 51 to 70%.

For `Cc1ncsc1-c1ccc(CNC(=O)[C@@H]2C[C@@H](O)CN2C(=O)[C@@H](NC(=O)c2cccc(OCCCCOc3ccc(N4C(=S)N(c5ccc(C#N)c(C(F)(F)F)c5)C(=O)C4(C)C)cc3)c2)C(C)(C)C)cc1` [Example 278], the Dmax ([1]; VCaP, read-out: VCaP Dmax (%)) was 51 to 70%, the DC50 [1, 7] was under 50 nM and the DC50 [2] was 51 to 500 nM. It also gave a Dmax [2, 6] of over 71%.

Compound `Cc1ncsc1-c1ccc(CNC(=O)[C@@H]2C[C@@H](O)CN2C(=O)[C@@H](NC(=O)CCCOCCOc2ccc(-c3ccc(N4C(=S)N(c5ccc(C#N)c(C(F)(F)F)c5)C(=O)C4(C)C)cc3)cc2)C(C)(C)C)cc1` [Example 260] has a Dmax ([1]; VCaP, read-out: VCaP Dmax (%)) of 26 to 50%, a DC50 [1, 7] of under 50 nM and a DC50 [2] of 51 to 500 nM. The Dmax [2, 6] was over 71%.

With `Cc1ncsc1-c1ccc(CNC(=O)[C@@H]2C[C@@H](O)CN2C(=O)[C@@H](NC(=O)COCCCCCOC2CCN(C(=O)c3ccc(N4C(=S)N(c5ccc(C#N)c(C(F)(F)F)c5)C(=O)C4(C)C)cc3)CC2)C(C)(C)C)cc1` [Example 294] the Dmax ([1]; VCaP, read-out: VCaP Dmax (%)) was 26 to 50%, the DC50 [1, 7] was 51 to 500 nM and the DC50 [2] was 51 to 500 nM. For the same compound, the Dmax [2, 6] was 26 to 50%.

In the case of `Cc1ncsc1-c1ccc([C@H](C)NC(=O)[C@@H]2C[C@@H](O)CN2C(=O)[C@@H](NC(=O)COCCOCCOc2ccc(-c3ccc(N4C(=S)N(c5ccc(C#N)c(C(F)(F)F)c5)C(=O)C4(C)C)cc3F)cc2)C(C)(C)C)cc1` [Example 79, (2S,4R)-l-[(2S)-2-[2-(2-{2-[4-(4-{3-[4-cyano-3-(trifluoromethyl)phenyl]-5,5-dimethyl-4-oxo-2-sulfanylideneimidazolidin-1-yl}-2-fluorophenyl)phenoxy]ethoxy}ethoxy)acelamido]-3,3-dimethylbutanoyl]-4-hydroxy-N-[(1S)-l-[4-(4-methyl-l,3-thiazol-5-yl)phenyl]ethyl]pyrrolidine-2-carboxamide], the DC50 [1, 5] is reported as under 50 nM, the “VCaP Dmax (%)” value ([1]; highest percentage of Androgen Receptor degradation observed, VCaP cells) is reported as “+++ (51% ≤ Dmax ≤ 70%)” and the DC50 [2] is reported as under 50 nM. The “LNCaP Dmax (%)” value [2, 4] was “++++ (71% ≤ Dmax)”.

For `Cc1ncsc1-c1ccc(CNC(=O)[C@@H]2C[C@@H](O)CN2C(=O)[C@H](C(C)C)N2Cc3c(CCCOCCOc4ccc(N5C(=S)N(c6ccc(C#N)c(C(F)(F)F)c6)C(=O)C5(C)C)cc4)cccc3C2=O)cc1` [Example 299], the Dmax ([1]; VCaP, read-out: VCaP Dmax (%)) was 26 to 50%, the DC50 [2] was 51 to 500 nM and the Dmax [2, 6] was over 71%.
